From patent US11851440B2, “Modulators of eukaryotic initiation factor 2B, compositions and methods” (Denali Therapeutics Inc., priority 2017, dated 2023)
Where two headings read alike, the source gives them in different places.

How the values were obtained:
[1] = tested on: ISR pathway (ATF4 translation); assay: ATF4 Nano Luciferase reporter integrated stress response (ISR) assay in H4 ATF4-NLuc cells; settings: Homo sapiens, compound 30 minutes, then 50 um sodium arsenite for 6 hours, luminescence readout
[2] = molecular target: T1, P-gp (P-glycoprotein, MDR1) (Homo sapiens, UniProt P08183); assay: MDCKII-MDR1 permeability, bidirectional assay; assay type: in vitro ADME; settings: dog, MDCK-MDR1, MDCKII-MDR1 cells, HBSS+12.5 mM HEPES pH 7.4
T1 construct: host or cells: MDCKII-MDR1 cells (pre-plated, Corning HTS Transwell-96)
T1 sequence (P08183 whole entry): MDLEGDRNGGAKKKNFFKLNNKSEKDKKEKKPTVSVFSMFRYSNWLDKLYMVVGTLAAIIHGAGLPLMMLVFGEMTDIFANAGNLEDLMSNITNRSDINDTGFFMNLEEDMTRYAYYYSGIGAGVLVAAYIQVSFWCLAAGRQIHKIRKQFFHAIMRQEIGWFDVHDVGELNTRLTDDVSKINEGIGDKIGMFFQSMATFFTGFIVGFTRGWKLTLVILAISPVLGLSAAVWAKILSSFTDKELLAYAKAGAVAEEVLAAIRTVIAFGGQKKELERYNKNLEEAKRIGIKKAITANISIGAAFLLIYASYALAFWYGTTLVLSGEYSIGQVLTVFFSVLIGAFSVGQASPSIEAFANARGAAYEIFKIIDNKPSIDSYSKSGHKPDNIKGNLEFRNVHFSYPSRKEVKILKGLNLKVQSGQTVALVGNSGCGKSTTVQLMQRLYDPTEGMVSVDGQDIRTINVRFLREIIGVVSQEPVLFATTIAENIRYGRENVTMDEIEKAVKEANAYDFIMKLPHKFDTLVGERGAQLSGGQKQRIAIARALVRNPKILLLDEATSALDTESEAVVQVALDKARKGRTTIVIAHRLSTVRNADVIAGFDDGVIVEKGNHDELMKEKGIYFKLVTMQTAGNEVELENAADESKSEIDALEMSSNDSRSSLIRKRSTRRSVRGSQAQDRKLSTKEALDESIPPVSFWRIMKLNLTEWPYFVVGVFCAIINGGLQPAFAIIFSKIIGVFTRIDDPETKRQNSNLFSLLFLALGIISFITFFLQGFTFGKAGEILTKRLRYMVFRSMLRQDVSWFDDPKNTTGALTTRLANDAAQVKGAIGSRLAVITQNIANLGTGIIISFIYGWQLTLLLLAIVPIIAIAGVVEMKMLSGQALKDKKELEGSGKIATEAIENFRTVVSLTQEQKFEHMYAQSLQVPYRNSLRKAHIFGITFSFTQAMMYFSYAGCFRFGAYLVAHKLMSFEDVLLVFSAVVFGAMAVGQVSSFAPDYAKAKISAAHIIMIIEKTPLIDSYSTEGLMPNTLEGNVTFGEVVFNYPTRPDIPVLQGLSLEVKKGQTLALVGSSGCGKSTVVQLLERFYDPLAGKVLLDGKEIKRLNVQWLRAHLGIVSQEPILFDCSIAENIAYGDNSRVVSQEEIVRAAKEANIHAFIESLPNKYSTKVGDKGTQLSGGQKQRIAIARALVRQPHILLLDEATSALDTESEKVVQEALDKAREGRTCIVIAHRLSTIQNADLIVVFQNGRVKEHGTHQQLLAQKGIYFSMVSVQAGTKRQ
Procedure: The blood brain barrier (BBB) separates circulating blood from the extracellular fluid of the central nervous system (CNS). […] A bidirectional assay (Apical to Basolateral (A→B) and Basolateral to Apical (B→A)), in the absence and in the presence of GF120918 (a P-gp inhibitor) was conducted using pre-plated MDCKII-MDR1 cells (Corning HTS Transwell-96) obtained from SOLVO Biotechnology. The assay was run at 3 μM for 90 min (minutes) in triplicate using a HBSS+12.5 mM HEPES pH 7.4 transport buffer. Following incubation of samples from donor and receiver, wells were removed and measured by LC-MS/MS. Samples were extracted by protein precipitation with acetonitrile containing an appropriate internal standard (IS) having a known mass and molecular weight. The precipitate was centrifuged for 10 min at 3000 rpm (revolutions per minute). The supernatants were then collected, diluted if necessary, and injected on to the LC-MS/MS system. Specific parent/daughter ion pairs for the test article and IS were used to selectively measure the test articles. Papp (apparent permeability expressed in nm/sec [nanometer/second]) values were calculated according to the following equation: […]
Where dQ/dt is the permeability rate, C0 is the initial concentration in the donor solution (expressed as IS ratio), A and B are the surface areas of the filter (the surface area of the cell monolayer).
Monolayer efflux ratios (ER) were derived using the following equation: […]

[3] = read-out: Activity (IC50), H4 ATF4-NLuc (clone 17) cells

Row | Structure (SMILES) | IC50 ([1]; H4 ATF4-NLuc (clone 17) cells) | IC50 [1, 3] | efflux ratio at 90 min, 3 μM [2]
1 | O=C(CO[C@H]1C[C@@H](OC(F)(F)F)C1)NC12CC(n3cnc(-c4ccc(C(F)(F)F)cc4O)c3)(C1)C2 [Example 254, N-(3-(4-(2-hydroxy-4-(trifluoromethyl)phenyl)-1H-imidazol-1-yl)bicyclo[1.1.1]pentan-1-yl)-2-(3-cis-(trifluoromethoxy)cyclobutoxy)acetamide] | 5.3 nM | < 1000 nM | ≤ 2.5
2 | O=C(CO[C@H]1C[C@@H](OC(F)(F)F)C1)NC12CC(n3cnc(-c4ccc(Cl)c(F)c4F)c3)(C1)C2 [Example 270, N-(3-(4-(4-chloro-2,3-difluorophenyl)-1H-imidazol-1-yl)bicyclo[1.1.1]pentan-1-yl)-2-(3-cis-(trifluoromethoxy)cyclobutoxy)acetamide] | 1.1 nM | < 1000 nM | ≤ 2.5
